The results in this text go back to ChEMBL document CHEMBL1144079, “7-Hydroxyceratinamine, a new cyanoformamide-containing metabolite from a sponge, Aplysinella sp” (J Nat Prod, 1999).

Active and inactive are the calls of the source. The calls are words filed in the database; no cut-off is given here.

This assay has as its system U-937. Description: Induction of apoptosis in human U937 cells. The assay is classed as functional, cell-based.
As to `N#CC(=O)NCCCOc1c(Br)cc(CCN)cc1Br`, the result was inactive.

`N#CC(=O)NCCCOc1c(Br)cc(C(O)CN)cc1Br` (centres undefined): the result was inactive.

With `C[N+](C)(C)CCc1cc(Br)c(O)c(Br)c1`, the result was inactive. Take `NCCCOc1c(Br)cc(CCN)cc1Br`: the result was inactive.
